From patent US12178790B2, “Antibacterial compound isolated from Psiloxylon mauritianum and its derivatives” (CENTRE NATIONAL DE LA RECHERCHE SCIENTIFIQUE(CNRS), priority 2021, dated 2024)
Values after ≈ are worked out from the molar mass of the structure shown. Read-outs that look alike come from different tables or passages of the source.

Tests used:
[1] = test system: Escherichia coli WT 25922; assay: MIC against Gram-negative bacteria, alone or in combination with colistin; type: cell-based
Experimental: (§1) The crude extract and pure compounds isolated were tested against human pathogenic microorganisms, including the bacterium Staphylococcus aureus (ATCC 29213), MRSA (ATCC 33591), Candida albicans (ATCC 10213), Trichophyton rubrum (SNB-TR1) and P. aeruginosa ATCC 27853 to screen their antibacterial and antifungal activities. All ATCC strains were purchased from the Pasteur Institute. The clinical isolate was provided by Prof. Philippe Loiseau, Université Paris Sud. The ITS sequence was deposited in the NCBI GenBank database under the registry number KC692746 corresponding to SNB-TR1 strain. The tests were conducted in accordance to the reference protocols from the European Committee on Antimicrobial Susceptibility Testing. The standard microdilutions, ranging from 256 to 0.25 μg/mL were made from stock solutions prepared in DMSO (Sigma-Aldrich, France). The microplates were incubated at 35° C., and MIC values were obtained after 48 h for C. albicans, 24 h for S. aureus and 5 days for T. rubrum. The MIC values reported in Table 2 refer to the lowest concentration preventing visible growth in the wells. Vancomycin (Sigma-Aldrich, Saint-Quentin Fallavier, France) and oxacillin (Sigma-Aldrich, Saint-Quentin Fallavier, France) were used as positive controls for bacteria. Fluconazole (Sigma-Aldrich, Saint-Quentin Fallavier, France) and itraconazole (Sigma-Aldrich, Saint-Quentin Fallavier, France) were used as positive controls for fungi. All assays were conducted in duplicate.
(§2) Permeabilizers are compounds that weaken the outer membrane by enhance the permeability of bacterial cells to antimicrobial agents. [Farrag, H. A.; Abdallah, N.; Shehata, M. M. K.; Awad, E. M. J Biomed Sci, 2019, 26:69] Colistin a.k.a. polymyxin E were extensively used in clinical practice for Gram-negative organisms, but gradually withdrawn from the market due to reports of significant nephrotoxicity and neurotoxicity. [Mohamed, Y. F., Abou-Shleib, H. M., Khalil, A. M., El-Guink, N. M., & El-Nakeeb, M. A. Braz J Microbiol., 2016, 47, 381-388] In combinaison with various antibiotics, colistin is known to destabilize the outer membrane enhancing the antibacterial activity. In our study, we evaluated a combinaison of colistin at a sub-inhibitory concentration and Aspidin CB. […] (Table 5)

[2] = test system: Acinetobacter baummanii 19606; assay: as above; type: cell-based
Experimental: as §1, §2

MRSA (ATCC 33591) = assay: MIC determination (microdilution), MRSA; type: cell-based, Staphylococcus aureus; conditions: for MIC: Staphylococcus aureus, read-out: MIC MRSA ATCC 33591
Experimental: as §1

[3] = test system: Candida albicans (ATCC 10213); assay: MIC determination (microdilution), C. albicans; type: cell-based; conditions: for MIC: Candida albicans, ATCC10213
Experimental: as §1

[4] = test system: Human lung fibroblast cells (MRC-5); assay: Cytotoxicity evaluation, MTS assay; type: cell-based
Experimental: (§3) Human lung fibroblast cells (MRC-5) were purchased from ATCC (Rockville, Md., USA) and cultured as recommended. Cell growth inhibition was determined by an MTS assay according to the manufacturer's instructions (Promega, Madison, Wis., USA). The cells were seeded in 96-well plates containing the growth medium. After 24 h of culture, samples were dissolved in DMSO (Sigma-Aldrich, France), and added to the cells (at 1 and 10 μM final concentrations). After 72 h of incubation, the reagent was added, and the absorbance at 490 nm was recorded using a plate reader. Cell viability was evaluated in comparison with untreated control cultures. Docetaxel (Taxotere) was used as positive control (IC50: 0.5 nM). All assays were conducted in triplicate.

[5] = test system: Trichophyton rubrum (SNB-TR1); assay: MIC determination (microdilution), T. rubrum; type: cell-based; conditions: for MIC: Trichophyton rubrum, 120 h
Experimental: as §1

[6] = test system: Staphylococcus aureus (ATCC 29213); assay: MIC determination (microdilution), S. aureus; type: cell-based; conditions: for MIC: Staphylococcus aureus, ATCC29213
Experimental: as §1

[7] = ABTS radical scavenging (antioxidant) assay; type: biochemical; conditions: at 50 μg/ml
Description: P. mauritianum extracts were investigated for their antioxidant activities with using an ABTS [2,2′-azinobis-(3-ethylbenzothiazoline-6-sulfonate)] assay.

[8] = test system: Enterococcus faecalis 29212; assay: MIC against Gram-positive bacteria; type: cell-based
SARM NCTC 12493 = assay: MIC against Gram-positive bacteria; type: cell-based; conditions: Staphylococcus aureus, NCTC12493
[9] = test system: SARM G + 86 (clinical strain); assay: MIC against Gram-positive bacteria; type: cell-based; conditions: Staphylococcus aureus
Experimental: as §1

[10] = test system: SARM G + 79 (clinical strain); assay: MIC against Gram-positive bacteria; type: cell-based; conditions: Staphylococcus aureus
Experimental: as §1

[11] = test system: SARM G + 82 (clinical strain); assay: MIC against Gram-positive bacteria; type: cell-based; conditions: Staphylococcus aureus
Experimental: as §1

[12] = test system: SARM G + 78 (clinical strain); assay: MIC against Gram-positive bacteria; type: cell-based; conditions: Staphylococcus aureus
Experimental: as §1

[13] = test system: Enterococcus faecium SI299 (clinical strain); assay: MIC against Gram-positive bacteria; type: cell-based
[14] = Cytotoxicity evaluation, MTS assay; type: cell-based; conditions: human, MRC-5 human lung fibroblast cells, 72 h, read-out: MRC5 Cell Viability
Experimental: as §3

[15] = test system: Corynebacterium sp. L2 220321 (clinical strain); assay: MIC against Gram-positive bacteria; type: cell-based
[16] = test system: Bacillus sp. L4 210321 (clinical strain); assay: MIC against Gram-positive bacteria; type: cell-based
S. aureus ATCC25923 = assay: MIC against Gram-positive bacteria; type: cell-based; conditions: Staphylococcus aureus
[17] = test system: Enterococcus faecium van B (clinical strain); assay: MIC against Gram-positive bacteria; type: cell-based
[18] = test system: S. epidermis MSF G + 16 (clinical strain); assay: MIC against Gram-positive bacteria; type: cell-based
[19] = test system: S. epidermis MSF G + 15 (clinical strain); assay: MIC against Gram-positive bacteria; type: cell-based
[20] = human pathogenic fungi, in words
[21] = colistin at sub-inhibitory concentration, in words

In the case of Colistin [reference compound], the “MIC Escherichia coli WT 25922” value ([1]; single agent) is reported as 1 mg/L and the “MIC Acinetobacter baummanii 19606” value ([2]; single agent) is reported as 4 mg/L.
For `CCCC(=O)C1=C(O)C(Cc2c(O)c(C)c(OC)c(C(=O)CCC)c2O)=C(O)C(C)(C)C1=O` [Compound 1, Aspidin BB], the “MIC MRSA ATCC 33591” value (MRSA (ATCC 33591); Table 6 and text) was 1 mg/L (≈ 2.17 µM), the “Antibacterial activity against MRSA” value (MRSA (ATCC 33591); in words) was “strongly active” and the “MIC C. albicans ATCC 10213” value ([3]; Table 6, 48 h) was >256 mg/L. For the same compound, the “Antifungal activity against C. albicans” value [3, 20] was “inactive”, the “MRC5 Cell Viability” value ([4]; 10^−5 M, 72 h) was 86 ± 3% and the “MRC5 Cell Viability” value ([4]; 10^−6 M, 72 h) was 104 ± 1%. For the same compound, the “MIC T. rubrum SNB-TR1” value ([5]; Table 6, 5 days) was >256 mg/L, the “Antifungal activity against T. rubrum” value [5, 20] was “inactive” and the “MIC S. aureus ATCC 29213” value ([6]; Table 6 and text, 24 h) was 2 mg/L (≈ 4.34 µM). For the same compound, the “Antibacterial activity against S. aureus” value ([6]; in words) was “strongly active”.
In the case of `Cc1onc(-c2ccccc2)c1C(=O)N[C@@H]1C(=O)N2[C@@H]1SC(C)(C)[C@@H]2C(=O)O` [Oxacillin, reference compound], the MIC ([6]; Table 6 and text, 24 h) is reported as 0.25 mg/L (≈ 0.623 µM).
In the case of Tocopherol, the “% ABTS inhibition” value [7] is reported as 97.6%.
Compound `CCCCCC(=O)C1=C(O)C(C)(C)C(O)=C(Cc2c(O)c(C)c(OC)c(C(=O)CCC)c2O)C1=O` [Compound 2, Aspidin CB] has an MIC [8] of 8 mg/L (≈ 16.4 µM), an MIC (SARM NCTC 12493) of 0.5 mg/L (≈ 1.02 µM) and an MIC [9] of 0.5 mg/L (≈ 1.02 µM). For the same compound, the MIC [10] was 1 mg/L (≈ 2.05 µM), the MIC [11] was 0.5 mg/L (≈ 1.02 µM) and the MIC [12] was 0.5 mg/L (≈ 1.02 µM). The MIC [13] was 8 mg/L (≈ 16.4 µM), the MIC ([1]; Escherichia coli, WT25922, single agent) was > 64 mg/L and the “Activity against E. coli in combination with colistin vs alone” value [1, 21] was “unambiguously more active”. The MIC ([2]; Acinetobacter, 19606, single agent) was > 64 mg/L, the “Activity against A. baumanii in combination with colistin vs alone” value [2, 21] was “unambiguously more active” and the MIC (MRSA (ATCC 33591); Table 6 and text) was 0.25 mg/L (≈ 0.512 µM). For the same compound, the “Fold more potent than vancomycin against MRSA” value (MRSA (ATCC 33591); ratio of MICs) was 16 fold, the MIC ([3]; Table 6, 48 h) was > 256 mg/L and the “Cytotoxicity in MRC5 cells” value ([4]; at 10^−5 M, in words) was “no cytotoxicity was observed”. For the same compound, the viability at 72 h ([14]; 10^−5 M) was 99 ± 2%, the viability at 72 h ([14]; 10^−6 M) was 105 ± 2% and the MIC ([5]; Table 6, 5 days) was 256 mg/L (≈ 524 µM). For the same compound, the MIC [15] was 1 mg/L (≈ 2.05 µM), the “Fold stronger activity of compound 2 vs compound 1 on S. aureus strains” value ([6]; S. aureus and MRSA, ratio of MICs) was 4-to 8 fold and the MIC ([6]; Table 6 and text, 24 h) was 0.25 mg/L (≈ 0.512 µM). For the same compound, the MIC [16] was 1 mg/L (≈ 2.05 µM), the MIC (S. aureus ATCC25923) was 0.5 mg/L (≈ 1.02 µM) and the MIC [17] was 0.5 mg/L (≈ 1.02 µM). The MIC [18] was 2 mg/L (≈ 4.09 µM) and the MIC [19] was 0.5 mg/L (≈ 1.02 µM).
`CN[C@H](CC(C)C)C(=O)N[C@H]1C(=O)N[C@@H](CC(N)=O)C(=O)N[C@H]2C(=O)N[C@H]3C(=O)N[C@H](C(=O)N[C@H](C(=O)O)c4cc(O)cc(O)c4-c4cc3ccc4O)[C@H](O)c3ccc(c(Cl)c3)Oc3cc2cc(c3O[C@@H]2O[C@H](CO)[C@@H](O)[C@H](O)[C@H]2O[C@H]2C[C@](C)(N)[C@H](O)[C@H](C)O2)Oc2ccc(cc2Cl)[C@H]1O` [Vancomycin, reference compound] gave an MIC (MRSA (ATCC 33591)) of 4 mg/L (≈ 2.76 µM).
Work on `CC(=O)O[C@@]12CO[C@@H]1C[C@H](O)[C@@]1(C)C(=O)[C@H](O)C3=C(C)[C@@H](OC(=O)[C@H](O)[C@@H](NC(=O)OC(C)(C)C)c4ccccc4)C[C@@](O)([C@@H](OC(=O)c4ccccc4)[C@H]21)C3(C)C` [Docetaxel, reference compound] yielded an IC50 ([4]; Homo sapiens, MRC5, positive control, 72 h, read-out: IC50 cell growth inhibition MRC-5) of 0.5 nM.
Work on `OC(Cn1cncn1)(Cn1cncn1)c1ccc(F)cc1F` [Fluconazole, reference compound] yielded an MIC ([3]; Table 6, 48 h) of 1 mg/L (≈ 3.27 µM) and an MIC ([5]; Table 6, 5 days) of 4 mg/L (≈ 13.1 µM).
In the case of `Cc1c(C)c2c(c(C)c1O)CCC(C)(C(=O)O)O2` (centres unmarked) [Trolox], the “% ABTS inhibition” value [7] is reported as 98.0%.
For `CCC(C)n1ncn(-c2ccc(N3CCN(c4ccc(OCC5COC(Cn6cncn6)(c6ccc(Cl)cc6Cl)O5)cc4)CC3)cc2)c1=O` (centres unmarked) [Itraconazole, reference compound], the MIC ([3]; Table 6, 48 h) was < 0.5 mg/L and the MIC ([5]; Table 6, 5 days) was < 0.5 mg/L.
